{"source": "patent US20110045082A1", "about": "“AGGLOMERATES BY CRYSTALLISATION” (priority 1999, published 2011)", "format_in_all_cases": "physicochemical", "key": {"[1]": {"experiment": "Average diameter of agglomerates", "details": "agglomerates as obtained after drying"}, "[2]": {"experiment": "Loose bulk density of the powder"}, "[3]": {"experiment": "Tapped bulk density of the powder"}, "[4]": {"experiment": "Compressibility of the powder"}, "[5]": {"experiment": "Particle size distribution"}, "[6]": {"details": "High flow (solution 15 l/h, acetone 312 l/h)"}, "[7]": {"details": "Low flow (flows decreased by a factor 2)"}, "[8]": {"details": "Table 1, agglomerated vs needle form"}, "[9]": {"details": "agitator 3000 RPM, 0.9 mm nozzle"}}, "data": [{"compound": "O=C(O)[C@H]1/C(=C/CO)O[C@@H]2CC(=O)N21", "note": "[Example 1, potassium clavulanate]", "values": [{"measurement": "average diameter", "setting": "[1]", "value": "100-1000 μm"}]}, {"compound": "O=C(O)[C@H]1/C(=C/CO)O[C@@H]2CC(=O)N21", "note": "[Example 7, potassium clavulanate]", "values": [{"measurement": "average diameter", "setting": "[1]", "value": "500-1500 μm"}]}, {"compound": "O=C(O)[C@H]1/C(=C/CO)O[C@@H]2CC(=O)N21", "note": "[Example 6, potassium clavulanate]", "values": [{"measurement": "average diameter", "setting": "[1]", "value": "10-200 μm"}]}, {"compound": "O=C(O)[C@H]1/C(=C/CO)O[C@@H]2CC(=O)N21", "note": "[Example 11, potassium clavulanate]", "values": [{"measurement": "Loose bulk density", "setting": "[2]; [6]", "value": 0.27, "unit": "g/mL"}, {"measurement": "Loose bulk density", "setting": "[2]; [7]", "value": 0.35, "unit": "g/mL"}, {"measurement": "Tapped bulk density", "setting": "[3]; [6]", "value": 0.36, "unit": "g/mL"}, {"measurement": "Tapped bulk density", "setting": "[3]; [7]", "value": 0.44, "unit": "g/mL"}, {"measurement": "Compressibility", "setting": "[4]; [6]", "value": 25, "unit": "%"}, {"measurement": "Compressibility", "setting": "[4]; [7]", "value": 20, "unit": "%"}, {"measurement": "particle size distribution 75-150 μm", "setting": "[5]; High flow", "value": 41.2, "unit": "volume %"}, {"measurement": "particle size distribution 150-250 μm", "setting": "[5]; High flow", "value": 9.3, "unit": "volume %"}, {"measurement": "particle size distribution 250-500 μm", "setting": "[5]; High flow", "value": 0.3, "unit": "volume %"}, {"measurement": "particle size distribution 500-710 μm", "setting": "[5]; High flow", "value": 0, "unit": "volume %"}, {"measurement": "particle size distribution <75 μm", "setting": "[5]; High flow", "value": 48.7, "unit": "volume %"}, {"measurement": "particle size distribution >710 μm", "setting": "[5]; High flow", "value": 0, "unit": "volume %"}, {"measurement": "particle size distribution 75-150 μm", "setting": "[5]; Low flow", "value": 50.4, "unit": "volume %"}, {"measurement": "particle size distribution 150-250 μm", "setting": "[5]; Low flow", "value": 1.1, "unit": "volume %"}, {"measurement": "particle size distribution 250-500 μm", "setting": "[5]; Low flow", "value": 0.6, "unit": "volume %"}, {"measurement": "particle size distribution 500-710 μm", "setting": "[5]; Low flow", "value": 0.4, "unit": "volume %"}, {"measurement": "particle size distribution <75 μm", "setting": "[5]; Low flow", "value": 48.8, "unit": "volume %"}, {"measurement": "particle size distribution >710 μm", "setting": "[5]; Low flow", "value": 0, "unit": "volume %"}]}, {"compound": "O=C(O)[C@H]1/C(=C/CO)O[C@@H]2CC(=O)N21", "note": "[Agglomerates of potassium clavulanate, potassium clavulanate]", "values": [{"measurement": "Loose bulk density", "setting": "[2]; [8]", "value": 0.49, "unit": "g/mL"}, {"measurement": "Tapped bulk density", "setting": "[3]; [8]", "value": 0.68, "unit": "g/mL"}, {"measurement": "Compressibility", "setting": "[4]; [8]", "value": 28, "unit": "%"}, {"measurement": "average diameter", "setting": "[1]; listed as Example 8", "value": "40-200 μm"}]}, {"compound": "O=C(O)[C@H]1/C(=C/CO)O[C@@H]2CC(=O)N21", "note": "[Example 2, potassium clavulanate]", "values": [{"measurement": "average diameter", "setting": "[1]", "value": "500-1500 μm"}]}, {"compound": "O=C(O)[C@H]1/C(=C/CO)O[C@@H]2CC(=O)N21", "note": "[Example 10, potassium clavulanate]", "values": [{"measurement": "Loose bulk density", "setting": "[2]; agitator speed 1000 RPM", "value": 0.39, "unit": "g/mL"}, {"measurement": "Loose bulk density", "setting": "[2]; agitator speed 2000 RPM", "value": 0.42, "unit": "g/mL"}, {"measurement": "Tapped bulk density", "setting": "[3]; agitator speed 1000 RPM", "value": 0.44, "unit": "g/mL"}, {"measurement": "Tapped bulk density", "setting": "[3]; agitator speed 2000 RPM", "value": 0.47, "unit": "g/mL"}, {"measurement": "Compressibility", "setting": "[4]; agitator speed 1000 RPM", "value": 11, "unit": "%"}, {"measurement": "Compressibility", "setting": "[4]; agitator speed 2000 RPM", "value": 11, "unit": "%"}, {"measurement": "particle size distribution 75-150 μm", "setting": "[5]; agitator speed 1000 RPM", "value": 6.5, "unit": "volume %"}, {"measurement": "particle size distribution 150-250 μm", "setting": "[5]; agitator speed 1000 RPM", "value": 20.7, "unit": "volume %"}, {"measurement": "particle size distribution 250-500 μm", "setting": "[5]; agitator speed 1000 RPM", "value": 60.8, "unit": "volume %"}, {"measurement": "particle size distribution 500-710 μm", "setting": "[5]; agitator speed 1000 RPM", "value": 6.1, "unit": "volume %"}, {"measurement": "particle size distribution <75 μm", "setting": "[5]; agitator speed 1000 RPM", "value": 5.1, "unit": "volume %"}, {"measurement": "particle size distribution >710 μm", "setting": "[5]; agitator speed 1000 RPM", "value": 0.2, "unit": "volume %"}, {"measurement": "particle size distribution 75-150 μm", "setting": "[5]; agitator speed 2000 RPM", "value": 2.4, "unit": "volume %"}, {"measurement": "particle size distribution 150-250 μm", "setting": "[5]; agitator speed 2000 RPM", "value": 9.5, "unit": "volume %"}, {"measurement": "particle size distribution 250-500 μm", "setting": "[5]; agitator speed 2000 RPM", "value": 57.3, "unit": "volume %"}, {"measurement": "particle size distribution 500-710 μm", "setting": "[5]; agitator speed 2000 RPM", "value": 27, "unit": "volume %"}, {"measurement": "particle size distribution <75 μm", "setting": "[5]; agitator speed 2000 RPM", "value": 1.8, "unit": "volume %"}, {"measurement": "particle size distribution >710 μm", "setting": "[5]; agitator speed 2000 RPM", "value": 1.5, "unit": "volume %"}]}, {"compound": "O=C(O)[C@H]1/C(=C/CO)O[C@@H]2CC(=O)N21", "note": "[Example 3, potassium clavulanate]", "values": [{"measurement": "average diameter", "setting": "[1]", "value": 1000, "unit": "μm"}]}, {"compound": "potassium clavulanate [Example 12]", "values": [{"measurement": "Loose bulk density", "setting": "[2]; Nozzle diameter 0.9 mm", "value": 0.22, "unit": "g/mL"}, {"measurement": "Loose bulk density", "setting": "[2]; Nozzle diameter 1.2 mm", "value": 0.36, "unit": "g/mL"}, {"measurement": "Tapped bulk density", "setting": "[3]; Nozzle diameter 0.9 mm", "value": 0.3, "unit": "g/mL"}, {"measurement": "Tapped bulk density", "setting": "[3]; Nozzle diameter 1.2 mm", "value": 0.44, "unit": "g/mL"}, {"measurement": "particle size distribution 75-150 μm", "setting": "[5]; Nozzle diameter 0.9 mm", "value": 43.3, "unit": "volume %"}, {"measurement": "particle size distribution 150-250 μm", "setting": "[5]; Nozzle diameter 0.9 mm", "value": 8, "unit": "volume %"}, {"measurement": "particle size distribution 250-500 μm", "setting": "[5]; Nozzle diameter 0.9 mm", "value": 1, "unit": "volume %"}, {"measurement": "particle size distribution 500-710 μm", "setting": "[5]; Nozzle diameter 0.9 mm", "value": 0.2, "unit": "volume %"}, {"measurement": "particle size distribution <75 μm", "setting": "[5]; Nozzle diameter 0.9 mm", "value": 46.3, "unit": "volume %"}, {"measurement": "particle size distribution >710 μm", "setting": "[5]; Nozzle diameter 0.9 mm", "value": 0.1, "unit": "volume %"}, {"measurement": "particle size distribution 75-150 μm", "setting": "[5]; Nozzle diameter 1.2 mm", "value": 50.6, "unit": "volume %"}, {"measurement": "particle size distribution 150-250 μm", "setting": "[5]; Nozzle diameter 1.2 mm", "value": 31.3, "unit": "volume %"}, {"measurement": "particle size distribution 250-500 μm", "setting": "[5]; Nozzle diameter 1.2 mm", "value": 1.9, "unit": "volume %"}, {"measurement": "particle size distribution 500-710 μm", "setting": "[5]; Nozzle diameter 1.2 mm", "value": 0, "unit": "volume %"}, {"measurement": "particle size distribution <75 μm", "setting": "[5]; Nozzle diameter 1.2 mm", "value": 15.9, "unit": "volume %"}, {"measurement": "particle size distribution >710 μm", "setting": "[5]; Nozzle diameter 1.2 mm", "value": 0.3, "unit": "volume %"}]}, {"compound": "O=C(O)[C@H]1/C(=C/CO)O[C@@H]2CC(=O)N21", "note": "[Needles of Potassium clavulanate, potassium clavulanate, reference compound]", "values": [{"measurement": "Loose bulk density", "setting": "[2]; [8]", "value": 0.18, "unit": "g/mL"}, {"measurement": "Tapped bulk density", "setting": "[3]; [8]", "value": 0.36, "unit": "g/mL"}, {"measurement": "Compressibility", "setting": "[4]; [8]", "value": 50, "unit": "%"}]}, {"compound": "O=C(O)[C@H]1/C(=C/CO)O[C@@H]2CC(=O)N21", "note": "[Example 9, potassium clavulanate]", "values": [{"measurement": "Loose bulk density", "setting": "[2]; [9]", "value": 0.22, "unit": "g/mL"}, {"measurement": "Tapped bulk density", "setting": "[3]; [9]", "value": 0.30, "unit": "g/mL"}, {"measurement": "Compressibility", "setting": "[4]; [9]", "value": 27, "unit": "%"}, {"measurement": "particle size distribution 75-150 μm", "setting": "[5]; Table 2, 3000 RPM", "value": 43.3, "unit": "volume %"}, {"measurement": "particle size distribution 150-250 μm", "setting": "[5]; Table 2, 3000 RPM", "value": 8, "unit": "volume %"}, {"measurement": "particle size distribution 250-500 μm", "setting": "[5]; Table 2, 3000 RPM", "value": 1, "unit": "volume %"}, {"measurement": "particle size distribution 500-710 μm", "setting": "[5]; Table 2, 3000 RPM", "value": 0.2, "unit": "volume %"}, {"measurement": "particle size distribution <75 μm", "setting": "[5]; Table 2, 3000 RPM", "value": 46.3, "unit": "volume %"}, {"measurement": "particle size distribution >710 μm", "setting": "[5]; Table 2, 3000 RPM", "value": 0.1, "unit": "volume %"}]}, {"compound": "O=C(O)[C@H]1/C(=C/CO)O[C@@H]2CC(=O)N21", "note": "[Example 5, potassium clavulanate]", "values": [{"measurement": "average diameter", "setting": "[1]", "value": "50-250 μm"}]}, {"compound": "O=C(O)[C@H]1/C(=C/CO)O[C@@H]2CC(=O)N21", "note": "[Example 4, potassium clavulanate]", "values": [{"measurement": "average diameter", "setting": "[1]", "value": "500-1000 μm"}]}]}
